US6562850B1, “Methods of synthesizing sultams and anti-viral compositions” (The University of Tennessee Research Corporation, priority 1998, dated 2003)

What was measured:
[1] = system: HIV-1; assay: anti-HIV-1 activity, National Cancer Institute (Weislow) protocol; format: cell-based; conditions: for IC50: IC50 beside EC50 and TI50 (not further defined in the patent); for Act.: activity class as per the NCI protocol
[2] = Human immunodeficiency virus 1, NCI Weislow protocol

| Molecule | IC50 [1, 2] | Act. [1] | melting point | IC50 ([1]; NCI Weislow protocol) | TI50 ([1]; NCI Weislow protocol, therapeutic index column) | EC50 ([1]; anti-HIV-1 activity, NCI Weislow protocol) |
| --- | --- | --- | --- | --- | --- | --- |
| CN1[C@@H](c2ccc(O)cc2)c2ccccc2S1(=O)=O [Compound 21, (+)-4-[(3S)-2-Methyl-1,1-dioxo-2,3-dihydrobenzo[d]isothiazol-3-yl]phenol] | > 200 µM | I | 178 to 180 °C |  |  |  |
| CN1[C@H](c2ccc(O)cc2)c2ccccc2S1(=O)=O [Compound 22, (−)-4-[(3R)-2-Methyl-1,1-dioxo-2,3-dihydrobenzo-[d]-isothiazol-3-yl]phenol] | > 200 µM | I | 178 to 179 °C |  |  |  |
| (R,S)-2,5-Dimethyl-3-phenyl-2,3-dihydrobenzo[d]isothiazole 1,1-dioxide [Compound 47] |  |  |  | 156 µM | 5.03 | 31 µM |
| (R,S)-4-(2-Methyl-1,1-dioxo-2,3-dihydrobenzo[d]isothiazol-3-yl)phenol [Compound 20] |  | I |  | > 200 µM |  |  |
